In US20210205341A1, “COMPOSITIONS COMPRISING HUMAN MILK OLIGOSACCHARIDES FOR USE IN INFANTS OR YOUNG CHILDREN TO PREVENT OR TREAT A HEALTH DISORDER BY INCREASING GLP-1 SECRETION” (NESTEC S.A., priority 2016, published 2021):

Experiments:
[1] = tested on: GLP-1 secretion; experiment: GLP-1 plasma concentration in IUGR rats fed HMO-supplemented regimen; assay type: in vivo, rat
Source text: A wide group of pregnant female rats were bought from Charles River laboratories. They were submitted to food restriction of 60% during the last 10 days of gestation.
Immediately after birth (d=1), the born rat pups—subjects of the experiment—were split into several groups: • IUGR rats (control) (n=20) • IUGR rats+HMO (test groups): During the experiment, they were reared by their mothers for 21 days and supplemented with HMOs (2FL or LNnT). At weaning, they were fed a diet supplemented with the same HMOs, see details below. There were 2 different groups: • IUGR rats+2FL (n=10) • IUGR rats+LNnT (n=10)
IUGR (intrauterine growth restricted) rats were chosen as control model since they have a higher appetite to compensate their growth retardation, and therefore they may not eat in a healthy way with standard diets (e.g. they may have a higher total weight and/or adipose mass increase over their lean mass increase) which may lead to the development and programming for future health conditions including later in life obesity or future related comorbidities like diabetes.
All rat pups were fed from birth (d=1) up to 57 days (d=57) based on the following protocol: • day 1-day 6: all groups of rats were nursed by dam (mothers' milk only) • day 7-day 21: all rats were nursed by dam (mothers' milk only). But in the test groups, 3 g/kg body weight of a HMO were also administered by gavage: 2FL: 3 g/kg body weight, for the group IUGR rats+2FL LNnT: 3 g/kg body weight, for the group IUGR rats+LNnT • day 22-day 57: rats were separated from their mothers and they had the following regimen: • IUGR rats (control): fed with a control diet (composition detailed in table 2), no HMO supplementation
IUGR rats+HMO (test groups): fed with the same diet but supplemented with 4.5 wt % of a HMO (maltodextrin in the total control diet was replaced by the respective tested HMO):
4.5 wt % of 2FL for the group IUGR rats+2FL
4.5 wt % of LNnT for the group IUGR rats+LNnT
GLP-1 secretion in the rats was assessed by determination of its circulating concentration in plasma.

[2] = tested on: NCI-H716 cells; experiment: Calcium assay in NCI-H716 cells (fluorescent calcium sensitive dye); assay type: cell-based, human; conditions: for significance of increase in fluorescence ratio: 5 mg/mL, 10 mg/mL and 20 mg/mL, p<0.05 vs negative control, two-sided t-test; for concentration dependence of calcium response: 1-20 mg/mL; for fluorescence ratio (intracellular calcium response): all tested concentrations: 1, 5, 10 and 20 mg/mL, vs buffer negative control
Source text: NCI-H716 is a cell line derived from human L-cells, the enteroendocrine cells that secrete GLP-1, and it is often used as a model of GLP-1 secretion. Unstimulated NCI-H716 cells secrete a basal level of GLP-1 and activation of the cells leads to dose-dependent increase in GLP-1 secretion. Activation of the NCI-H716 cells and subsequent release of GLP-1 can be triggered by nutrients such as palmitic acid, oleic acid, and meat hydrolysate, Gastrin Releasing Peptide (GRP), the cholinergic molecule Carbachol, bitter compounds such as denatonium, ginsenosides and other molecules.
Activation of NCI-H716 cells by ionomycin, GRP, denatonium, or ginsenosides leads to increased intracellular calcium. Elevation of intracellular calcium is therefore a marker of cell activation and in NCI-H716 cells it could be considered as an indicator of GLP-1 release.
A calcium assay was used to determine if NCI-H716 cells respond to human milk oligosaccharides (sialylated oligosaccharides 3SL and 6SL) or components/precursors thereof (lactose and sialic acid). In this assay, cultured NCI-H716 cells were loaded with a fluorescent calcium sensitive dye then stimulated with the HMOs. The response to the stimulus was measured by change in fluorescence ratio in consequence of intracellular calcium increase. The tested HMOs were 3′-sialyllactose (3SL) and 6′-sialyllactose (6SL). They were tested individually.
GRP (Gastrin Releasing Peptide): positive control
Tested HMOs concentrations: 1 mg/mL, 5 mg/mL, 10 mg/mL and 20 mg/mL
Tested lactose and sialic acid concentrations: 5.5 mg/mL and 4.72 mg/mL respectively (correspond to the amounts contained in 10 mg/mL of 3SL, in order to make a suitable comparison with 10 mg/mL of 3SL)

[3] = d=57, 3 g/kg by gavage day 7-21, then diet with 4.5 wt % HMO day 22-57, FIG. 1A partial results
[4] = d=57, 3 g/kg by gavage day 7-21, then diet with 4.5 wt % HMO day 22-57, FIG. 1B final results

Compound	GLP-1 plasma concentration increase in comparison with the control group [1, 3]	GLP-1 plasma concentration increase in comparison with the control group [1, 4]	significance of increase in fluorescence ratio [2]	concentration dependence of calcium response [2]	fluorescence ratio (intracellular calcium response) [2]	other results
2′-fucosyllactose [2FL]	200%	164%				
CC(=O)N[C@H]1[C@H](O[C@H]2[C@@H](O)[C@@H](CO)O[C@@H](O[C@H]3[C@H](O)[C@@H](O)C(O)O[C@@H]3CO)[C@@H]2O)O[C@H](CO)[C@@H](O[C@@H]2O[C@H](CO)[C@H](O)[C@H](O)[C@H]2O)[C@@H]1O (mixture of isomers) [LNnT, lacto-N-neotetraose]	43%	13%				
CC(=O)N[C@H]1[C@H]([C@H](O)[C@H](O)CO)O[C@@](O[C@H]2[C@@H](O)[C@@H](CO)O[C@@H](O[C@H]3[C@H](O)[C@@H](O)C(O)O[C@@H]3CO)[C@@H]2O)(C(=O)O)C[C@@H]1O (stereo partly drawn) [3SL, (6R)-5-Acetamido-3,5-dideoxy-6-[(1R,2R)-1,2,3-trihydroxypropyl]-β-L-threo-hex-2-ulopyranonosyl-(2->3)-β-D-galactopyranosyl-(1->4)-D-glucopyranose]			significant	clear concentration dependent calcium response	enhanced	
CC(=O)N[C@H]1[C@H]([C@H](O)[C@H](O)CO)O[C@@](OC[C@H]2O[C@@H](O[C@H]3[C@H](O)[C@@H](O)C(O)O[C@@H]3CO)[C@H](O)[C@@H](O)[C@H]2O)(C(=O)O)C[C@@H]1O (stereo partly drawn) [6SL, (6R)-5-Acetamido-3,5-dideoxy-6-[(1R,2R)-1,2,3-trihydroxypropyl]-β-L-threo-hex-2-ulopyranonosyl-(2->6)-β-D-galactopyranosyl-(1->4)-D-glucopyranose]			significant	clear concentration dependent calcium response	enhanced	
OC[C@H]1O[C@@H](O[C@H]2[C@H](O)[C@@H](O)C(O)O[C@@H]2CO)[C@H](O)[C@@H](O)[C@H]1O (stereo partly drawn) [Lactose, reference compound]						activation of NCI-H716 cells (calcium response) ([2]; 5.5 mg/mL (amount contained in 10 mg/mL 3SL)): did not activate the cells
CC(=O)N[C@H]1[C@H]([C@H](O)[C@H](O)CO)OC(O)(C(=O)O)C[C@@H]1O (stereo partly drawn) [sialic acid, N-acetylneuraminic acid, reference compound]						activation of NCI-H716 cells (calcium response) ([2]; 4.72 mg/mL (amount contained in 10 mg/mL 3SL)): did not activate the cells
